Data from the NIST ThermoML archive (doi:10.1016/j.jct.2017.01.019).
± gives the expanded uncertainty stated by the source.

Details: Liquid, Closed cell (Static) method

Structure (SMILES)	vapor or sublimation pressure (243.15 K)	vapor or sublimation pressure (248.15 K)	vapor or sublimation pressure (253.15 K)	vapor or sublimation pressure (258.15 K)	vapor or sublimation pressure (263.15 K)	vapor or sublimation pressure (268.15 K)	vapor or sublimation pressure (273.15 K)	vapor or sublimation pressure (278.15 K)	vapor or sublimation pressure (283.15 K)	vapor or sublimation pressure (288.15 K)	vapor or sublimation pressure (293.15 K)
N [ammonia]	119.7 ± 1.6 kPa	151.7 ± 1.6 kPa	190.2 ± 1.6 kPa	236.4 ± 1.6 kPa	290.7 ± 1.7 kPa	354.8 ± 1.7 kPa	429.3 ± 1.7 kPa	515.5 ± 1.8 kPa	615.1 ± 1.8 kPa	728.5 ± 1.9 kPa	857.1 ± 2 kPa
FCC(F)(F)F [1,1,1,2-tetrafluoroethane]	84.5 ± 1.6 kPa	106.4 ± 1.6 kPa	132.7 ± 1.6 kPa	163.9 ± 1.6 kPa	200.6 ± 1.6 kPa	243.3 ± 1.6 kPa	292.7 ± 1.7 kPa	349.6 ± 1.7 kPa	414.3 ± 1.7 kPa	488.2 ± 1.8 kPa	570.7 ± 1.8 kPa
